1 molecule from ChEMBL document CHEMBL4507299, “Data for DCP probe PF-04554878” (2021) can be followed below.

pIC50: −log10 of the molar value.

The pIC50 is the IC50 on a negative log10 scale, so that one unit is a factor of ten.

The target in the assay is Aurora kinase A (Homo sapiens, UniProt O14965). The experiment in a line: Aurora-A Invitrogen kinase activity assay.
Chain of Aurora kinase A (O14965 whole entry): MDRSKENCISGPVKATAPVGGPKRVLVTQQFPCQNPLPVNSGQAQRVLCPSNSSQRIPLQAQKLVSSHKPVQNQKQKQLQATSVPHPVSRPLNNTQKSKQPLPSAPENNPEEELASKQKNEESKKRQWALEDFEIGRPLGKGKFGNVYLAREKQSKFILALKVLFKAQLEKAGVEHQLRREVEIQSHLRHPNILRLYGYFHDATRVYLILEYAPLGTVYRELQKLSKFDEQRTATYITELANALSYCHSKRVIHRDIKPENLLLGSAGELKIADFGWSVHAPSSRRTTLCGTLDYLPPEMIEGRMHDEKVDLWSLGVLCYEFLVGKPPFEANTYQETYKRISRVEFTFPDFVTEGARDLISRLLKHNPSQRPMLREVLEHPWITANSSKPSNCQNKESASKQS

The molecule `CNC(=O)c1ccc(Nc2ncc(C(F)(F)F)c(NCc3nccnc3N(C)S(C)(=O)=O)n2)cc1` [DEFACTINIB] showed a pIC50 of 6.87.
